Source: PubChem BioAssay (NCI)
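Following 48 hours of exposure in 96-well plates, responses at five concentrations were used to interpolate endpoints linearly. At the TGI there is no net growth.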

What was measured:
Experiment in all cases: NCI-60 cell line screen, 48 h
[1] = tested on: 786-0 renal
[2] = tested on: A498 renal
[3] = tested on: ACHN renal
[4] = tested on: CAKI-1 renal
[5] = tested on: COLO 205 colon
[6] = tested on: DMS 114 small cell lung
[7] = tested on: DMS 273 small cell lung
[8] = tested on: EKVX NSCLC
[9] = tested on: HCC-2998 colon
[10] = tested on: HCT-116 colon
[11] = tested on: HCT-15 colon
[12] = tested on: HOP-18 NSCLC
[13] = tested on: HOP-62 NSCLC
[14] = tested on: HOP-92 NSCLC
[15] = tested on: HT29 colon
[16] = tested on: IGROV1 ovarian
[17] = tested on: K-562 leukemia
[18] = tested on: KM12 colon
[19] = tested on: KM20L2 colon
[20] = tested on: LOX IMVI melanoma
[21] = tested on: LXFL 529 NSCLC
[22] = tested on: M14 melanoma
[23] = tested on: M19-MEL melanoma
[24] = tested on: MALME-3M melanoma
[25] = tested on: NCI-H226 lung
[26] = tested on: NCI-H23 lung
[27] = tested on: NCI-H460 lung
[28] = tested on: NCI-H522 lung
[29] = tested on: OVCAR-3 ovarian
[30] = tested on: OVCAR-4 ovarian
[31] = tested on: OVCAR-5 ovarian
[32] = tested on: OVCAR-8 ovarian
[33] = tested on: RPMI-8226 leukemia
[34] = tested on: RXF 393 renal
[35] = tested on: RXF-631 renal
[36] = tested on: SF-268 CNS
[37] = tested on: SF-295 CNS
[38] = tested on: SF-539 CNS
[39] = tested on: SK-MEL-2 melanoma
[40] = tested on: SK-MEL-28 melanoma
[41] = tested on: SK-MEL-5 melanoma
[42] = tested on: SK-OV-3 ovarian
[43] = tested on: SN12C renal
[44] = tested on: SNB-19 CNS
[45] = tested on: SNB-75 CNS
[46] = tested on: SNB-78 CNS
[47] = tested on: SW-620 colon
[48] = tested on: TK-10 renal
[49] = tested on: U251 CNS
[50] = tested on: UACC-257 melanoma
[51] = tested on: UACC-62 melanoma
[52] = tested on: UO-31 renal
[53] = tested on: XF 498 CNS
[54] = tested on: A549 NSCLC
[55] = tested on: CCRF-CEM leukemia
[56] = tested on: DLD-1 colon
[57] = tested on: HL-60(TB) leukemia
[58] = tested on: SR leukemia
[59] = tested on: MOLT-4 leukemia

Measured: TGI

N#CC1C(=O)C(=O)N(c2ccccc2)C1=O (centres undefined)
not listed: [54] | [55] | [56] | [57] | [58] | [59]
> 100 µM: all other assays above

COC1(OC)CC2CCCCC2=C(C)N1S(=O)(=O)c1ccccc1 (centres undefined)
not listed: [2] | [6] | [9] | [59]
> 100 µM: all other assays above

COc1ccc(NC(=O)NS(=O)(=O)c2ccc(C)cc2)nn1
not listed: [10] | [34] | [58]
> 100 µM: all other assays above
